Laboratory results as given in US8383607B2, “Perifosine and capecitabine as a combined treatment for cancer” (AEterna Zentaris GmbH, priority 2011, dated 2013).
Where two headings read alike, the source gives them in different places.

How the values were obtained:
[1] = test system: breast cancer, non-small cell lung cancer, colorectal cancer, prostate cancer, ovarian cancer, head and neck cancer or soft tissue sarcoma; experiment: Phase II portion: perifosine or placebo with single-agent chemotherapy regimens; assay type: in vivo, human; details: 50 mg perifosine or placebo daily with single-agent chemotherapy
Description: The prior regimen must have been different than the single agent administered in this study. Each patient received a single agent chemotherapy regimen which was judged by a physician as likely to be as beneficial to the patient as any other available therapy. […] The single-agent chemotherapy regimens were as follows: Paclitaxel: 175 mg/m^2 every 3 weeks or 80 mg/m^2 on days 1, 8 and 15 every 4 weeks, by intravenous infusion over 1 to 3 hours (used to treat breast, prostate and lung cancers); Docetaxel: 75 mg/m^2 every 3 weeks or 35 mg/m^2 on days 1, 8 and 15 every 4 weeks, by intravenous infusion over 1 hour (used to treat head and neck, lung, ovarian and prostate cancers); Gemcitabine: 1000 mg/m^2 on days 1 and 8 every 3 weeks, by infusion over 30 minutes (used to treat sarcoma and lung, ovarian, breast and head and neck cancers); Doxorubicin: 60 mg/m^2 every 3 weeks, by infusion over 30 minutes (used to treat sarcoma and prostate, ovarian, and breast cancers); Pegylated liposomal doxorubicin: 40 mg/m^2 every 4 weeks, by infusion over 30 minutes (used to treat sarcoma and ovarian and breast cancers); Capecitabine: 825 mg/m^2 twice per day (i.e., 1650 mg/m^2 per day) on days 1-14 every 3 weeks, administered orally (used to treat breast, colorectal, head and neck, prostate, and ovarian cancers); Pemetrexed: 500 mg/m^2 every 3 weeks, by intravenous infusion over 10 minutes (used to treat lung and colorectal cancers); and Irinotecan: 100 mg/m^2 on days 1, 8 and 15 every 4 weeks, by intravenous infusion over 90 minutes (used to treat sarcoma and colorectal and lung cancers). The time to progression (TTP) was a primary endpoint for the various treatment groups. Overall survival (OS) rates and overall response rates (ORR) of the patients and the proportion of progression-free patients were secondary endpoints. In addition, the safety of the combined treatments was also evaluated. […] The Kaplan-Meier method was used to calculate times to progression and overall survival. Median values of the TTP and OS were calculated, as well as the confidence intervals (CI) of the TTP and OS at a 95% confidence level. P-values were calculated for the differences between different treatments.

[2] = cited from earlier work; for time of peak blood level after administration: after capecitabine administration
[3] = test system: metastatic colorectal cancer; experiment: Phase II randomized placebo-controlled expanded study: perifosine with capecitabine vs capecitabine alone; assay type: in vivo, human
Description: As outlined above, the randomized placebo-controlled study was performed in order to evaluate the effects of perifosine in combination with various cytotoxic agents (i.e., gemcitabine, paclitaxel, docetaxel, doxorubicin, capecitabine, pemetrexed, irinotecan and pegylated liposomal doxorubicin) and to determine if co-administering perifosine and each of these cytotoxic agents results in synergy, and if such synergy overcomes resistance to chemotherapy in cancer cells.
The study was performed on patients having breast cancer, non-small cell lung cancer, colorectal cancer, prostate cancer, ovarian cancer, head and neck cancer or soft tissue sarcoma, who had received at least one prior chemotherapy regimen. The prior regimen must have been different than the single agent administered in this study. Each patient received a single agent chemotherapy regimen which was judged by a physician as likely to be as beneficial to the patient as any other available therapy.
Patients received either 50 mg perifosine or placebo daily in combination with single-agent chemotherapy.
Capecitabine: 825 mg/m^2 twice per day (i.e., 1650 mg/m^2 per day) on days 1-14 every 3 weeks, administered orally (used to treat breast, colorectal, head and neck, prostate, and ovarian cancers);
The time to progression (TTP) was a primary endpoint for the various treatment groups. Overall survival (OS) rates and overall response rates (ORR) of the patients and the proportion of progression-free patients were secondary endpoints. In addition, the safety of the combined treatments was also evaluated.
Progression and response (complete response or partial response) were determined according to RECIST 1.0 criteria.
The Kaplan-Meier method was used to calculate times to progression and overall survival. Median values of the TTP and OS were calculated, as well as the confidence intervals (CI) of the TTP and OS at a 95% confidence level. P-values were calculated for the differences between different treatments.
Safety of treatments was assessed by monitoring adverse events, which were graded according to the NCI CTCAE version 3.0.

[4] = test system: refractory advanced colorectal cancer; experiment: Phase I clinical study: safety of 50 mg perifosine daily with 1000 mg/m^2 capecitabine twice per day; details: first dose perifosine vs perifosine for eleven days
Description: A Phase I clinical study was performed for evaluating the safety of 50 mg perifosine daily in combination with 1000 mg/m^2 capecitabine twice per day in patients with refractory advanced colorectal cancer. During a 21 day cycle, perifosine was administered every day, whereas capecitabine was administered orally on days 1-14 of the cycle.
The study was performed on patients having 3rd line or higher metastatic colorectal cancer, with no prior exposure to perifosine, and who had received, or were not candidates for, regimens containing 5-fluorouracil, oxaliplatin, irinotecan, bevacizumab, and cetuximab or panitumumab. The patients had at least one measurable lesion, as well as adequate bone marrow, liver and renal function.
Toxicity was graded according to the NCI CTCAE version 3.0, and dose limiting toxicity was defined as any of the following: […]
a) Grade 3 non-hematological toxicity except alopecia, which is not reversible Grade 2 or less within 96 hours; or
Physical examination (including vital signs, weight and ECOG performance score) was performed prior to initiation of the treatment, and on day 1 (±3 days) of every cycle thereafter. Adverse event evaluations were monitored and reported promptly.

[5] = test system: Advancing colorectal cancer (ACRC); Metastatic colorectal cancer (MCRC); details: cited from earlier work
[6] = 5-FU-refractory metastatic colorectal cancer patients, listed as capecitabine alone
[7] = 5-FU-refractory metastatic colorectal cancer patients, listed as placebo+capecitabine
[8] = after 12 weeks, 5-FU refractory evaluable patients (14 combination, 11 capecitabine alone)
[9] = after 12 weeks, evaluable metastatic colorectal cancer patients (20 combination, 15 capecitabine alone)
[10] = all metastatic colorectal cancer patients, 50 mg perifosine or placebo daily + capecitabine 1650 mg/m^2 per day days 1-14 every 21 days
[11] = 2x daily 1250 mg/m2 (total 2500 mg/m2), MCRC, Asia-Pac J Clin Oncol. 2011, 82-87
[12] = 2x daily 1000-1250 mg/m2, ACRC, Acta Oncologica, 2005, 44: 236-239
[13] = 7 patients 2x daily 1250 mg/m2, after toxicity dose diluted to 1000 mg/m2, ACRC, Anticancer Res. 26: 1669-1672 (2006)

Nc1nc2[nH]cc(CCc3ccc(C(=O)N[C@@H](CCC(=O)O)C(=O)O)cc3)c2c(=O)[nH]1 [pemetrexed]
beneficial effect of perifosine (improvement in combination with perifosine) in subjects receiving the chemotherapeutic agent [1]: not to occur

Nc1ccn([C@@H]2O[C@H](CO)[C@@H](O)C2(F)F)c(=O)n1 [gemcitabine]
beneficial effect of perifosine (improvement in combination with perifosine) in subjects receiving the chemotherapeutic agent [1]: not to occur

CC(=O)O[C@H]1C(=O)[C@@]2(C)[C@H]([C@H](OC(=O)c3ccccc3)[C@]3(O)C[C@H](OC(=O)[C@H](O)[C@@H](NC(=O)c4ccccc4)c4ccccc4)C(C)=C1C3(C)C)[C@]1(OC(C)=O)CO[C@@H]1C[C@@H]2O [paclitaxel]
beneficial effect of perifosine (improvement in combination with perifosine) in subjects receiving the chemotherapeutic agent [1]: not to occur

O=c1[nH]cc(F)c(=O)[nH]1 [5-fluorouracil]
time of peak blood level after administration [2]: 2 h

CCc1c2c(nc3ccc(OC(=O)N4CCC(N5CCCCC5)CC4)cc13)-c1cc3c(c(=O)n1C2)COC(=O)[C@]3(O)CC [irinotecan]
beneficial effect of perifosine (improvement in combination with perifosine) in subjects receiving the chemotherapeutic agent [1]: not to occur

CC(=O)O[C@@]12CO[C@@H]1C[C@H](O)[C@@]1(C)C(=O)[C@H](O)C3=C(C)[C@@H](OC(=O)[C@H](O)[C@@H](NC(=O)OC(C)(C)C)c4ccccc4)C[C@@](O)([C@@H](OC(=O)c4ccccc4)[C@H]21)C3(C)C [docetaxel]
beneficial effect of perifosine (improvement in combination with perifosine) in subjects receiving the chemotherapeutic agent [1]: not to occur

CCCCCOC(=O)Nc1nc(=O)n([C@@H]2O[C@H](C)[C@@H](O)[C@H]2O)cc1F [capecitabine]
Median OS ([3]; 5-FU refractory): 6.6 mo. for 5-FU | Median TTP ([3]; 5-FU refractory): 10 weeks for 5-FU | median overall survival (OS) [3, 6]: 6.8 months | median time to progression (TTP) [3, 6]: 10 weeks | median overall survival (OS) [3, 7]: 6.6 months | median time to progression (TTP) [3, 7]: 11 weeks | Grade 3 and 4 adverse events: anemia ([3]; NCI CTCAE version 3.0): 0% | Grade 3 and 4 adverse events: hand/foot syndrome ([3]; NCI CTCAE version 3.0): 0% | patients who achieved stable disease (progression-free for 3 months or greater) [3, 8]: 3 | patients with partial response [3, 8]: none | proportion of patients who achieved stable disease [3, 8]: 27% | patients who achieved stable disease (progression-free for 3 months or greater) [3, 9]: 6 | patients with partial response [3, 9]: 1 | proportion of patients who achieved stable disease [3, 9]: 40% | patients with complete response ([3]; after 12 weeks, evaluable metastatic colorectal cancer patients (20 combination, 15 capecitabine alone), RECIST 1.0): none | median overall survival (OS) [3, 10]: 10.9 months | median time to progression (TTP) [3, 10]: 11 weeks | Median OS ([3]; all patients): refractory; 10.9 mo. | Median TTP ([3]; all patients): refractory; 11 weeks | patients who discontinued treatment due to an adverse event ([3]; in vivo): 2 | time of peak blood level after administration [2]: about 1.5 hours | effect of food on capecitabine absorption ([2]; in vivo): reduces both the rate and extent | elimination half-life ([2]; in vivo): about ¾ | PK parameters for capecitabine or its metabolites, Cycle 1 Day 1 vs Cycle 1 Day 11 [4]: no statistically significant differences | Median OS [5, 11]: 5.3 months | Median TTP [5, 11]: 2.3 months | Median OS [5, 12]: 6.1 mos. | Median TTP [5, 12]: 2.8 mos. | Median OS [5, 13]: 5.2 mos. | Median TTP [5, 13]: 4 mos.

COc1cccc2c1C(=O)c1c(O)c3c(c(O)c1C2=O)C[C@@](O)(C(=O)CO)C[C@@H]3O[C@H]1C[C@H](N)[C@H](O)[C@H](C)O1 [doxorubicin]
beneficial effect of perifosine (improvement in combination with perifosine) in subjects receiving the chemotherapeutic agent [1]: not to occur
